In this experiment the target is human TrkA (Homo sapiens (Human), UniProt P04629). The experiment is described as follows: Human TrkA inhibition assay (Test Example 2). Format: biochemical. As to the method:
Seven point five μL per well of human TrkA (PV3144, Lifetechnologies, final concentration: 1 nmol/L) suspended in the assay buffer (100 mmol/L 4-(2-hydroxyethyl)-1-piperazineethanesulfonic acid (HEPES), 10 mmol/L magnecium chloride, 0.003 vol % Brij-35, 0.004 vol % Tween20 and 1 mmol/L dithiothreitol (DTT)) was applied in a 384 well plate and the plate was pre-incubated for 15 min at room temperature with 0.4 μL of each compound (final concentration: 200 μmol/L-1 pmol/L) dissolved in DMSO. Then, fluorescent substrate (FL-peptide 27, 760424, PerkinElmer, final concentration: 1.5 μmol/L) and ATP (final concentration 500 μmol/L) dissolved in the assay buffer was added in each well. After the incubation of 120 min at 37° C., fifteen μL of termination buffer (100 mmol/L HEPES, 40 mmol/L ethylenediaminetetraacetic acid (EDTA), 10 mmol/L magnecium chloride, 0.003 vol % Brij-35, 0.004 vol % Tween20, 1 mmol/L DTT and 0.16 vol % Coating Reagent 3) was added in each well to stop the enzyme reaction. Fluorescent intensities (FI) of phosphorylated and non-phosphorylated fluorescent substrates were measured by LabChip EZReader II (Caliper LifeSciences, Inc.), and conversion ratio (CR) was calculated by the following formula-1. The CR in the well applied with DMSO alone was used as a negative control and the CR in the well without applying TrkA was used as a positive control. The inhibitory effect of each compound on TrkA phosphorylation was calculated by the following formula-2. CR (%)=(FI of phosphorylated substrate/(FI of phosphorylated substrate+FI of non-phosphorylated substrate))×100 (Formula-1) Phosphorylation inhibition (%)=(1−(CR with compound treatment−CR of positive control)/(CR of negative control−CR of positive control))×100 (Formula-2)
IC50 values (nmol/L) were determined by the logistic regression using the inhibition data in 10 points of 3-fold dilution series at a compound concentration range of 20 nmol/L to 1 pmol/L, or 10 points of 3-fold dilution series at the range of 2 μmol/L to 0.1 nmol/L, or 10 points of 3-fold dilution series at the range of 200 μmol/L to 10 nmol/L, or 15 points of 3-fold dilution series at the range of 200 μmol/L to 0.04 nmol/L.
The evaluation results of the compounds in the present invention are indicated as follows. IC50 values of 0 to 100 nM, 100 to 1000 nM and over 1000 nM were shown as “A”, “B” and “C”, respectively.

[1] abbreviates: Table 153, human TrkA inhibition, read-out: IC50.
Where [2] appears, read: human TrkA 1 nmol/L, ATP 500 μmol/L, 120 min at 37° C., read-out: IC50 values (TrkA phosphorylation inhibition).

The structures appear in SMILES notation. Like-named read-outs stand apart in the source and are kept apart here. Some results are limits rather than exact numbers.

Sequence of human TrkA (P04629 440-796): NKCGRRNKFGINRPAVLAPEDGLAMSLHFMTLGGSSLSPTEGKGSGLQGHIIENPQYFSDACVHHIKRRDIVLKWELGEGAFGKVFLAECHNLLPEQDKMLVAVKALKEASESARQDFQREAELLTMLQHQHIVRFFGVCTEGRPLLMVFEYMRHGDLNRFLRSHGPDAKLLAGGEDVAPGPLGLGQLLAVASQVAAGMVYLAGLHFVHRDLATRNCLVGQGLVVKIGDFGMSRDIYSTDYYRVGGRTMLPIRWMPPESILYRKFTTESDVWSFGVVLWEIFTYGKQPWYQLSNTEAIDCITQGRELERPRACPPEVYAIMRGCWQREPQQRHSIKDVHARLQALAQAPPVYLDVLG

Turning to `CCNC(=O)c1cc(-c2nn(-c3ccccc3)c(NC(=O)N[C@@H]3CN(CCOC)O[C@H]3c3ccnc(F)c3)c2C)cnc1OC` (racemic) [Compound I-110], under setting [1], the half-inhibitory concentration (IC50) was less than 100 nM.

For `COCCN1C[C@@H](NC(=O)Nc2c(C)c(-c3cnc(OC)c(C(=O)NC4CCOCC4)c3)nn2-c2ccccc2)[C@H](c2ccnc(F)c2)O1` (racemic) [Compound I-111], the IC50 under setting [1] was less than 100 nM. For `COCCN1C[C@@H](NC(=O)Nc2c(C)c(-c3cnc(OC)c(C(=O)NC4CCS(=O)(=O)CC4)c3)nn2-c2ccccc2)[C@H](c2ccnc(F)c2)O1` (racemic) [Compound I-112], the IC50 under setting [1] was less than 100 nM.

For the molecule `COCCN1C[C@@H](NC(=O)Nc2c(C)c(-c3cnc4c(c3)c(C)nn4C)nn2-c2ccccc2)[C@H](c2ccnc(F)c2)O1` (racemic) [Compound I-114], the IC50 under setting [1] is less than 100 nM. On the same count and under the same terms, in the case of `COCCN1C[C@@H](NC(=O)Nc2c(C)c(-c3cnc(C4CC4)nc3)nn2-c2ccccc2)[C@H](c2ccnc(F)c2)O1` (racemic) [Compound I-115] it was less than 100 nM. Same read-out and setting: in the case of `COCCN1C[C@@H](NC(=O)Nc2c(C)c(-c3cnn(C)c3)nn2-c2ccccc2)[C@H](c2ccc(F)cc2)O1` (racemic) [Compound I-116] it was less than 100 nM; in that of `COCCN1C[C@@H](NC(=O)Nc2c(C)c(-c3cnc(C)nc3)nn2-c2ccccc2)[C@H](c2ccc(F)cc2)O1` (racemic) [Compound I-117], less than 100 nM; in that of `COCCN1C[C@@H](NC(=O)Nc2c(C)c(-c3cnc4c(c3)nnn4C)nn2-c2ccccc2)[C@H](c2ccc(F)cc2)O1` (racemic) [Compound I-118], less than 100 nM. Turning to `COCCN1C[C@@H](NC(=O)Nc2c(C)c(-c3cnc(OC)nc3)nn2-c2ccccc2)[C@H](c2ccnc(F)c2)O1` (racemic) [Compound I-119], under setting [2], the IC50 came to 4 nM. As for `COCCN1C[C@@H](NC(=O)Nc2c(C)c(-c3cnc(N(C(=O)OC(C)(C)C)C4CC4)nc3)nn2-c2ccccc2)[C@H](c2ccnc(F)c2)O1` (racemic) [Compound I-120], the half-inhibitory concentration (IC50) under setting [1] is less than 100 nM. For the molecule `COCCN1C[C@@H](NC(=O)Nc2c(C)c(-c3cnc4c(c3)oc(=O)n4C)nn2-c2ccccc2)[C@H](c2ccnc(F)c2)O1` (racemic) [Compound I-122], under setting [2], the IC50 was 2.7 nM. As for `COCCN1C[C@@H](NC(=O)Nc2c(C)c(-c3cnc4c(c3)oc(=O)n4C)nn2-c2ccccc2)[C@H](c2cnc(F)c(F)c2)O1` (racemic) [Compound I-123], the IC50 under setting [1] is less than 100 nM. Still for that read-out and setting: in the case of `COCCN1C[C@@H](NC(=O)Nc2c(C)c(-c3cc(COC(C)=O)c(=O)n(C)c3)nn2-c2ccccc2)[C@H](c2ccc(F)c(F)c2)O1` (racemic) [Compound I-124] it was less than 100 nM; in that of `COCCN1C[C@@H](NC(=O)Nc2c(C)c(-c3cc(CO)c(=O)n(C)c3)nn2-c2ccccc2)[C@H](c2ccc(F)c(F)c2)O1` (racemic) [Compound I-125], less than 100 nM.

Regarding `COCCN1C[C@@H](NC(=O)Nc2c(C)c(-c3cnc4c(c3)nnn4C)nn2-c2ccccc2)[C@H](c2ccc(F)c(F)c2)O1` (racemic) [Compound I-126], the IC50 under setting [1] is less than 100 nM.

As to `COCCN1C[C@@H](NC(=O)Nc2c(C)c(-c3cnc4c(c3)nnn4C)nn2-c2ccccc2)[C@H](c2cnc(F)c(F)c2)O1` (racemic) [Compound I-127], under setting [1], the IC50 was less than 100 nM. Same read-out and setting: the value for `COCCN1C[C@@H](NC(=O)Nc2c(C)c(-c3ccc(C#N)nc3)nn2-c2ccccc2)[C@H](c2ccc(F)c(F)c2)O1` (racemic) [Compound I-129] was less than 100 nM; that for `COCCN1C[C@@H](NC(=O)Nc2c(C)c(-c3cnc(NC4CC4)nc3)nn2-c2ccccc2)[C@H](c2ccnc(F)c2)O1` (racemic) [Compound I-131] was less than 100 nM; that for `COCCN1C[C@@H](NC(=O)Nc2c(C)c(-c3cnc(N(C)C)nc3)nn2-c2ccccc2)[C@H](c2ccnc(F)c2)O1` (racemic) [Compound I-132] was less than 100 nM.

For the molecule `COCCN1C[C@@H](NC(=O)Nc2c(C)c(-c3cnc4nccnc4c3)nn2-c2ccccc2)[C@H](c2ccc(F)c(F)c2)O1` (racemic) [Compound I-134], under setting [1], the half-maximal inhibitory concentration (IC50) was less than 100 nM. On to `COCCN1C[C@@H](c2ccnc(F)c2)[C@H](NC(=O)Nc2c(C)c(-c3cnn(C)c3)nn2-c2ccccc2)O1` (racemic) [Compound I-136], for which the IC50 under setting [2] came out at 30 nM. Turning to `COCCN1C[C@@H](NC(=O)Nc2c(C)c(-c3cnn(C)c3)nn2-c2ccccc2)[C@H](c2cnc(Cl)s2)O1` (racemic) [Compound I-137], the IC50 under setting [1] was less than 100 nM.

As to `CNC(=O)c1cc(-c2nn(-c3ccccc3)c(NC(=O)N[C@@H]3CN(CCOC)O[C@H]3c3ccc(F)cc3)c2C)cn(C)c1=O` (racemic) [Compound I-138], the IC50 under setting [1] was less than 100 nM. Same read-out and setting: in the case of `COCCN1C[C@@H](NC(=O)Nc2c(C)c(-c3cnn(C)c3)nn2-c2ccccc2)[C@H](c2cccc(F)c2)O1` (racemic) [Compound I-139] it was less than 100 nM; in that of `COCCN1C[C@@H](NC(=O)Nc2c(C)c(-c3cnc(C)nc3)nn2-c2ccccc2)[C@H](c2cccc(F)c2)O1` (racemic) [Compound I-140], less than 100 nM. The same measure, in the same setting: the value for `COCCN1C[C@@H](NC(=O)Nc2c(C)c(-c3cnc4c(c3)ncn4C)nn2-c2ccccc2)[C@H](c2cccc(F)c2)O1` (racemic) [Compound I-141] was less than 100 nM; that for `COCCN1C[C@@H](NC(=O)Nc2c(C)c(-c3cnc4c(c3)nnn4C)nn2-c2ccccc2)[C@H](c2cccc(F)c2)O1` (racemic) [Compound I-142] was less than 100 nM.

For `CNC(=O)c1cc(-c2nn(-c3ccccc3)c(NC(=O)N[C@@H]3CN(CCOC)O[C@H]3c3cccc(F)c3)c2C)cn(C)c1=O` (racemic) [Compound I-143], the IC50 under setting [1] is less than 100 nM. Still for that read-out and setting: in the case of `COCCN1C[C@@H](NC(=O)Nc2c(C)c(-c3cnc(N4CC(O)C4)nc3)nn2-c2ccccc2)[C@H](c2ccnc(F)c2)O1` (racemic) [Compound I-144] it was less than 100 nM.

In the case of `COCCN1C[C@@H](NC(=O)Nc2c(C)c(-c3ccc(-c4nn[nH]n4)nc3)nn2-c2ccccc2)[C@H](c2ccc(F)c(F)c2)O1` (racemic) [Compound I-145], under setting [2], the IC50 is 0.87 nM. In the case of `COCCN1C[C@@H](NC(=O)Nc2c(C)c(-c3cnn(C)c3)nn2C2CCC2)[C@H](c2ccc(F)c(F)c2)O1` (racemic) [Compound I-146], under setting [2], the IC50 is 330 nM. In the case of `CNC(=O)c1cc(-c2nn(-c3ccccc3)c(NC(=O)N[C@@H]3CN(CCOC)O[C@H]3c3ccc(F)c(F)c3)c2C)cn(C)c1=O` (racemic) [Compound I-147], under setting [1], the IC50 was less than 100 nM. Turning to `CCN1C[C@@H](NC(=O)Nc2c(C)c(-c3cc(C(=O)NC)c(=O)n(C)c3)nn2-c2ccccc2)[C@H](c2ccc(F)c(F)c2)O1` (racemic) [Compound I-148], the IC50 under setting [1] was less than 100 nM. Still for that read-out and setting: the value for `CNC(=O)c1cc(-c2nn(-c3ccccc3)c(NC(=O)N[C@@H]3CN(Cc4ccco4)O[C@H]3c3ccc(F)c(F)c3)c2C)cn(C)c1=O` (racemic) [Compound I-149] was less than 100 nM.

Consider `CNC(=O)c1cc(-c2nn(-c3ccccc3)c(NC(=O)N[C@@H]3CN(Cc4ccc(C#N)o4)O[C@H]3c3ccc(F)c(F)c3)c2C)cn(C)c1=O` (racemic) [Compound I-150], for which, under setting [1], the IC50 is less than 100 nM. On the same count and under the same terms, the value for `CNC(=O)c1cc(-c2nn(-c3ccccc3)c(NC(=O)N[C@@H]3CN(Cc4csnn4)O[C@H]3c3ccc(F)c(F)c3)c2C)cn(C)c1=O` (racemic) [Compound I-151] was less than 100 nM.

Usually IC50 stands for the concentration at which inhibition is half-maximal.
